Measured values: ChEMBL document CHEMBL1153835, “Targeting the calcineurin pathway enhances ergosterol biosynthesis inhibitors against Trichophyton mentagrophytes in vitro and in a human skin infection model” (Antimicrob Agents Chemother, 2007)
≈ marks a conversion by molar mass, not a printed value. Calls of active or inactive are those of the source. No cut-off for these calls is given here.

Tests used:
[1] = tested on: Trichophyton mentagrophytes; assay: Antifungal activity against Trichophyton mentagrophytes DUMC112.02 by CLSI protocol; assay type: functional
[2] = tested on: Trichophyton mentagrophytes; assay: Antifungal activity against Trichophyton mentagrophytes DUMC160.03 by CLSI protocol; assay type: functional
Zone of skin = assay: Toxicity to human skin assessed as damage of skin integrity at 2 fold MIC administered 30 mins post inoculation followed by once in every 2 days for 7 days by scanning electron microscopy; assay type: tissue-based
[3] = tested on: Trichophyton mentagrophytes; assay: Antifungal activity against Trichophyton mentagrophytes DUMC160.03 infected in human skin at 2 fold MIC administered 30 mins post infection followed by once in every 2 days for 7 days by scanning electron microscopy relative to control; assay type: functional, organism-based

Row | SMILES | MIC [1] [µg/mL] | MIC80 [1] [µg/mL] | MIC [2] [µg/mL] | MIC80 [2] [µg/mL] | Activity (Zone of skin) | Activity [3]
1 | C/C=C/C[C@@H](C)[C@@H](O)[C@H]1C(=O)N[C@@H](CC)C(=O)N(C)CC(=O)N(C)[C@@H](CC(C)C)C(=O)N[C@@H](C(C)C)C(=O)N(C)[C@@H](CC(C)C)C(=O)N[C@@H](C)C(=O)N[C@H](C)C(=O)N(C)[C@@H](CC(C)C)C(=O)N(C)[C@@H](CC(C)C)C(=O)N(C)[C@@H](C(C)C)C(=O)N1C [CYCLOSPORINE] | 2 (≈ 1.66 µM) | 2 (≈ 1.66 µM) | 1 (≈ 0.832 µM) | 8 (≈ 6.65 µM) |  | 
2 | OC(Cn1cncn1)(Cn1cncn1)c1ccc(F)cc1F [FLUCONAZOLE] | 8 (≈ 26.1 µM) | 16 (≈ 52.2 µM) | 8 (≈ 26.1 µM) | 16 (≈ 52.2 µM) | Non-toxic | Active
3 | C=CC[C@@H]1/C=C(\C)C[C@H](C)C[C@H](OC)[C@H]2O[C@@](O)(C(=O)C(=O)N3CCCC[C@H]3C(=O)O[C@H](/C(C)=C/[C@@H]3CC[C@@H](O)[C@H](OC)C3)[C@H](C)[C@@H](O)CC1=O)[C@H](C)C[C@@H]2OC [TACROLIMUS ANHYDROUS] | 1 (≈ 1.24 µM) | 1 (≈ 1.24 µM) | 1 (≈ 1.24 µM) | 1 (≈ 1.24 µM) | Non-toxic | inactive
4 | CN(C/C=C/C#CC(C)(C)C)Cc1cccc2ccccc12 [TERBINAFINE] | 0.004 (≈ 0.0137 µM) |  | 0.0312 (≈ 0.107 µM) |  | Non-toxic | Active
